Experimental data taken from PubChem BioAssay (NCI).
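Cultured in 96-well plates, cells were exposed to test compound for 48 hours across five concentrations. At the GI50, growth is halved. TGI: total growth inhibition.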

Key:
Assay in all cases: growth of human tumour cells (NCI), 48 h
SF-539 CNS = system: SF-539 CNS
786-0 renal = system: 786-0 renal
UO-31 renal = system: UO-31 renal
TK-10 renal = system: TK-10 renal
EKVX NSCLC = system: EKVX NSCLC
RXF 393 renal = system: RXF 393 renal
HCC-2998 colon = system: HCC-2998 colon
ACHN renal = system: ACHN renal
NCI-H522 lung = system: NCI-H522 lung
MDA-MB-435 = system: MDA-MB-435
OVCAR-4 ovarian = system: OVCAR-4 ovarian
RPMI-8226 leukemia = system: RPMI-8226 leukemia
NCI/ADR-RES ovarian = system: NCI/ADR-RES ovarian
MALME-3M melanoma = system: MALME-3M melanoma
DU-145 prostate = system: DU-145 prostate
HOP-62 NSCLC = system: HOP-62 NSCLC
SF-295 CNS = system: SF-295 CNS
MCF7 breast = system: MCF7 breast
LOX IMVI melanoma = system: LOX IMVI melanoma
SK-MEL-28 melanoma = system: SK-MEL-28 melanoma
NCI-H460 lung = system: NCI-H460 lung
HS 578T breast = system: HS 578T breast
UACC-257 melanoma = system: UACC-257 melanoma
HOP-92 NSCLC = system: HOP-92 NSCLC
SW-620 colon = system: SW-620 colon
K-562 leukemia = system: K-562 leukemia
MDA-MB-231 breast = system: MDA-MB-231 breast
PC-3 prostate = system: PC-3 prostate
BT-549 breast = system: BT-549 breast
MOLT-4 leukemia = system: MOLT-4 leukemia
IGROV1 ovarian = system: IGROV1 ovarian
U251 CNS = system: U251 CNS
HCT-116 colon = system: HCT-116 colon
NCI-H23 lung = system: NCI-H23 lung
A549 NSCLC = system: A549 NSCLC
NCI-H226 lung = system: NCI-H226 lung
UACC-62 melanoma = system: UACC-62 melanoma
CCRF-CEM leukemia = system: CCRF-CEM leukemia
SNB-19 CNS = system: SNB-19 CNS
SR leukemia = system: SR leukemia
HCT-15 colon = system: HCT-15 colon
COLO 205 colon = system: COLO 205 colon
SK-MEL-2 melanoma = system: SK-MEL-2 melanoma
SK-MEL-5 melanoma = system: SK-MEL-5 melanoma
HL-60(TB) leukemia = system: HL-60(TB) leukemia
A498 renal = system: A498 renal
HT29 colon = system: HT29 colon
SF-268 CNS = system: SF-268 CNS
SN12C renal = system: SN12C renal
OVCAR-5 ovarian = system: OVCAR-5 ovarian
T-47D breast = system: T-47D breast
KM12 colon = system: KM12 colon
CAKI-1 renal = system: CAKI-1 renal
SNB-75 CNS = system: SNB-75 CNS
SK-OV-3 ovarian = system: SK-OV-3 ovarian
OVCAR-3 ovarian = system: OVCAR-3 ovarian

In the case of CCOC(=O)c1c(NC(=O)COc2cccc3cccnc23)sc(C(=O)N(C)C)c1C, the GI50 (SF-539 CNS) is reported as 21.9 µM, the TGI (SF-539 CNS) is reported as 48 µM and the GI50 (786-0 renal) is reported as 20.7 µM. It also gave a TGI (786-0 renal) of 79.7 µM, a GI50 (UO-31 renal) of 21.4 µM and a TGI (UO-31 renal) of 55.6 µM. The GI50 (TK-10 renal) was 41 µM, the TGI (TK-10 renal) was > 100 µM and the GI50 (EKVX NSCLC) was 23 µM. It also gave a TGI (EKVX NSCLC) of 61 µM, a GI50 (RXF 393 renal) of 13 µM and a TGI (RXF 393 renal) of 34.2 µM. It also gave a GI50 (HCC-2998 colon) of 17.2 µM, a TGI (HCC-2998 colon) of 35.2 µM and a GI50 (ACHN renal) of 24.1 µM. It also gave a TGI (ACHN renal) of 75.5 µM, a GI50 (NCI-H522 lung) of 13.8 µM and a TGI (NCI-H522 lung) of 30.3 µM. For the same compound, the GI50 (MDA-MB-435) was 16.1 µM, the TGI (MDA-MB-435) was 31.5 µM and the GI50 (OVCAR-4 ovarian) was 22.1 µM. The TGI (OVCAR-4 ovarian) was 65.8 µM, the GI50 (RPMI-8226 leukemia) was 7.93 µM and the TGI (RPMI-8226 leukemia) was 36.8 µM. The GI50 (NCI/ADR-RES ovarian) was 6 µM, the TGI (NCI/ADR-RES ovarian) was 34.3 µM and the GI50 (MALME-3M melanoma) was 20.1 µM. It also gave a TGI (MALME-3M melanoma) of 46.6 µM, a GI50 (DU-145 prostate) of 18.5 µM and a TGI (DU-145 prostate) of 39.2 µM. The GI50 (HOP-62 NSCLC) was 19.6 µM, the TGI (HOP-62 NSCLC) was 58 µM and the GI50 (SF-295 CNS) was 13.5 µM. It also gave a TGI (SF-295 CNS) of 30.9 µM, a GI50 (MCF7 breast) of 19 µM and a TGI (MCF7 breast) of 42.5 µM. For the same compound, the GI50 (LOX IMVI melanoma) was 22 µM, the TGI (LOX IMVI melanoma) was 55.1 µM and the GI50 (SK-MEL-28 melanoma) was 16.9 µM. The TGI (SK-MEL-28 melanoma) was 33.4 µM, the GI50 (NCI-H460 lung) was 13.6 µM and the TGI (NCI-H460 lung) was 33.3 µM. The GI50 (HS 578T breast) was 15.5 µM, the TGI (HS 578T breast) was 44.6 µM and the GI50 (UACC-257 melanoma) was 18.6 µM. It also gave a TGI (UACC-257 melanoma) of 48 µM, a GI50 (HOP-92 NSCLC) of 14.2 µM and a TGI (HOP-92 NSCLC) of 55.1 µM. For the same compound, the GI50 (SW-620 colon) was 25.8 µM, the TGI (SW-620 colon) was 72.4 µM and the GI50 (K-562 leukemia) was 19.7 µM. The TGI (K-562 leukemia) was 48.9 µM, the GI50 (MDA-MB-231 breast) was 23.7 µM and the TGI (MDA-MB-231 breast) was > 100 µM. The GI50 (PC-3 prostate) was 17.5 µM, the TGI (PC-3 prostate) was 63 µM and the GI50 (BT-549 breast) was 14.1 µM. For the same compound, the TGI (BT-549 breast) was 32.4 µM, the GI50 (MOLT-4 leukemia) was 16.4 µM and the TGI (MOLT-4 leukemia) was 44.3 µM. For the same compound, the GI50 (IGROV1 ovarian) was 16.7 µM, the TGI (IGROV1 ovarian) was 49.2 µM and the GI50 (U251 CNS) was 25.2 µM. The TGI (U251 CNS) was > 100 µM, the GI50 (HCT-116 colon) was 14.6 µM and the TGI (HCT-116 colon) was 45.6 µM. It also gave a GI50 (NCI-H23 lung) of 14.7 µM, a TGI (NCI-H23 lung) of 36.5 µM and a GI50 (A549 NSCLC) of 18.5 µM. It also gave a TGI (A549 NSCLC) of 46.2 µM, a GI50 (NCI-H226 lung) of 17.9 µM and a TGI (NCI-H226 lung) of 50.1 µM. For the same compound, the GI50 (UACC-62 melanoma) was 11.8 µM, the TGI (UACC-62 melanoma) was 27.9 µM and the GI50 (CCRF-CEM leukemia) was 14.1 µM. The TGI (CCRF-CEM leukemia) was 82.3 µM, the GI50 (SNB-19 CNS) was 33.9 µM and the TGI (SNB-19 CNS) was > 100 µM. It also gave a GI50 (SR leukemia) of 31.6 µM, a TGI (SR leukemia) of 83.5 µM and a GI50 (HCT-15 colon) of 18.5 µM. It also gave a TGI (HCT-15 colon) of 48.5 µM, a GI50 (COLO 205 colon) of 17.4 µM and a TGI (COLO 205 colon) of 55.5 µM. It also gave a GI50 (SK-MEL-2 melanoma) of 18.5 µM, a TGI (SK-MEL-2 melanoma) of 45.5 µM and a GI50 (SK-MEL-5 melanoma) of 8.8 µM. The TGI (SK-MEL-5 melanoma) was 21.1 µM, the GI50 (HL-60(TB) leukemia) was 18.1 µM and the TGI (HL-60(TB) leukemia) was 39.9 µM. It also gave a GI50 (A498 renal) of 26.6 µM, a TGI (A498 renal) of 66.7 µM and a GI50 (HT29 colon) of 25.4 µM. For the same compound, the TGI (HT29 colon) was 61.6 µM, the GI50 (SF-268 CNS) was 22.4 µM and the TGI (SF-268 CNS) was 82 µM. The GI50 (SN12C renal) was 33.5 µM, the TGI (SN12C renal) was > 100 µM and the GI50 (OVCAR-5 ovarian) was 17.4 µM. For the same compound, the TGI (OVCAR-5 ovarian) was 37.3 µM, the GI50 (T-47D breast) was 5.24 µM and the TGI (T-47D breast) was 27.8 µM. For the same compound, the GI50 (KM12 colon) was 15.7 µM, the TGI (KM12 colon) was 35.3 µM and the GI50 (CAKI-1 renal) was 20.7 µM. The TGI (CAKI-1 renal) was 77.6 µM, the GI50 (SNB-75 CNS) was 19.1 µM and the TGI (SNB-75 CNS) was 63.1 µM. The GI50 (SK-OV-3 ovarian) was 36.2 µM, the TGI (SK-OV-3 ovarian) was > 100 µM and the GI50 (OVCAR-3 ovarian) was 20.8 µM. For the same compound, the TGI (OVCAR-3 ovarian) was 69.8 µM.
